Source: patent US8822449B2, “Substituted aminoindanes and analogs thereof, and the pharmaceutical use thereof” (Sanofi, priority 2008, dated 2014)
Read-outs that look alike come from different tables or passages of the source.

Molecular target: T1, sodium-proton exchanger of subtype 3 (NHE3) (Homo sapiens, UniProt P48764)
T1 construct: expressed in transfected cells
T1 sequence (P48764 26-834): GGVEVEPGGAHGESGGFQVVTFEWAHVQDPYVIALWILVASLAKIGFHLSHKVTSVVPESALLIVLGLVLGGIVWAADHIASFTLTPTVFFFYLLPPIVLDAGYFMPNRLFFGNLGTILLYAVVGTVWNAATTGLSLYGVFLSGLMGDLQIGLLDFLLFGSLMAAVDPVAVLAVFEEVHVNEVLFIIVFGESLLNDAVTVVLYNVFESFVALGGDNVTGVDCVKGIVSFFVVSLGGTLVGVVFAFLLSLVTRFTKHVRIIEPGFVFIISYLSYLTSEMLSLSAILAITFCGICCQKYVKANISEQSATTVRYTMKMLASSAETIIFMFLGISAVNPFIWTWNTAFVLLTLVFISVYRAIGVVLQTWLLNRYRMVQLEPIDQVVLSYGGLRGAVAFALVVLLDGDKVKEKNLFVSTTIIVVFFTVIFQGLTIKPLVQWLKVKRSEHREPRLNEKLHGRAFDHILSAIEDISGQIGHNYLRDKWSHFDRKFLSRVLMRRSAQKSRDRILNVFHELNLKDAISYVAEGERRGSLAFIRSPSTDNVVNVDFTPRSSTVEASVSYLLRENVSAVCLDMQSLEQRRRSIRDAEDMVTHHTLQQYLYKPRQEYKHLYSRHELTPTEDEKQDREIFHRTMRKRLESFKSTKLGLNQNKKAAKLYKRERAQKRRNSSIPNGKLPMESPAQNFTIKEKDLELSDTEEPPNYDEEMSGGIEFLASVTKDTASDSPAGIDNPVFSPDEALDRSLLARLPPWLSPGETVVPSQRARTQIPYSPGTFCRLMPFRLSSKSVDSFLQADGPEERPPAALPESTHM
Assay: Recovery of intracellular pH (pHi) after acidification in LAP1 cells stably expressing NHE3 (BCECF fluorescence, FLIPR)
Type: cell-based
Settings: LAP1 cells stably expressing NHE3, pH recovery after acidification, range 1 is % inhibition at 10 μM

[1] = read-out: Activity range (inhibitory effect on NHE3)

Row | Structure (SMILES) | IC50 [1] | other results
1 | CC(C)c1nc(C(C)(C)C)cn1-c1ccc(O[C@H]2c3cc(Cl)cc(F)c3C[C@@H]2N2CC[C@@H](O)C2)cc1 [Example 724, (R)-1-{trans-(1S,2S)-1-[4-(4-tert-Butyl-2-isopropyl-imidazol-1-yl)-phenoxy]-6-chloro-4-fluoro-indan-2-yl}-pyrrolidin-3-ol] |  | inhibition at 10 µM [1]: 20 to 50%
2 | Cc1nn(-c2ccc(O[C@H]3c4cc(Cl)cc(Cl)c4C[C@@H]3N3CC[C@@H](O)C3)cc2)c(=O)o1 [Example 733, 3-{4-[trans-(1S,2S)-4,6-Dichloro-2-((R)-3-hydroxy-pyrrolidin-1-yl)-indan-1-yloxy]-phenyl}-5-methyl-3H-[1,3,4]oxadiazol-2-one] | 1000 to 10000 nM | 
3 | Cc1cn(-c2ccc(O[C@H]3c4cc(Cl)cc(Cl)c4C[C@@H]3N3CC[C@@H](O)C3)c(F)c2)c(C)n1 [Example 727, (R)-1-{trans-(1S,2S)-4,6-Dichloro-1-[4-(2,4-dimethyl-imidazol-1-yl)-2-fluoro-phenoxy]-indan-2-yl}-pyrrolidin-3-ol] | < 1000 nM | 
4 | N[C@@H]1CCCN([C@H]2CCc3ccccc3[C@@H]2Oc2ccc(C(F)(F)F)cc2)C1 (racemic) [Example 77, (R)-1-[rac-trans-(1,2)-1-(4-trifluoromethylphenoxy)-1,2,3,4-tetrahydronaphthalen-2-yl]piperidin-3-ylamine] |  | inhibition at 10 µM [1]: 20 to 50%
5 | N#Cc1ccc(O[C@H]2c3ccccc3CC[C@@H]2N2CCC[C@H](N)C2)c(F)c1 (racemic) [Example 533, 4-[rac-trans-(1,2)-2-((S)-3-aminopiperidin-1-yl)-1,2,3,4-tetrahydronaphthalen-1-yloxy]-3-fluorobenzonitrile] | < 1000 nM | 
6 | N#Cc1cc(Cl)ccc1O[C@H]1c2ccccc2CC[C@@H]1N1CCOCC1 (racemic) [Example 585, 5-chloro-2-(rac-trans-(1,2)-2-morpholin-4-yl-1,2,3,4-tetrahydronaphthalen-1-yloxy)benzonitrile] |  | inhibition at 10 µM [1]: 20 to 50%
7 | CO[C@@H]1CCN(C2Cc3ccccc3C2Oc2ccc(S(N)(=O)=O)c(Cl)c2Cl)C1 (mixture of isomers) [Example 359, 2,3-dichloro-4-[rac-trans-(1,2)-2-((R)-3-methoxypyrrolidin-1-yl)indan-1-yloxy]benzenesulfonamide] | 1000 to 10000 nM | 
8 | COCCN1CCCN([C@H]2Cc3c(Cl)cc(Cl)cc3[C@@H]2Oc2ccc(S(C)(=O)=O)cc2)CC1 [Example 304, 1-[trans-(1S,2S)-4,6-dichloro-1-(4-methanesulfonylphenoxy)indan-2-yl]-4-(2-methoxyethyl)-[1,4]diazepane] | < 1000 nM | 
9 | CCCc1ccc(NC(C)=O)cc1O[C@H]1c2ccccc2CC[C@@H]1N1CCC[C@@H](N)C1 (racemic) [Example 675, N-{3-[rac-trans-(1,2)-2-((R)-3-aminopiperidin-1-yl)-1,2,3,4-tetrahydronaphthalen-1-yloxy]-4-propylphenyl}acetamide] | 1000 to 10000 nM | 
10 | CN1CCCN([C@H]2Cc3c(Cl)cc(Cl)cc3[C@@H]2Oc2ccc(S(C)(=O)=O)cc2)CC1 (racemic) [Example 279, 1-[rac-trans-(1,2)-4,6-dichloro-1-(4-methanesulfonylphenoxy)indan-2-yl]-4-methyl-[1,4]diazepane] | < 1000 nM | 
11 | Cc1cccc2c1C[C@H](N1CCCC1)[C@H]2Oc1ccc(S(N)(=O)=O)cc1 (racemic) [Example 472, 4-(rac-trans-(1,2)-4-methyl-2-pyrrolidin-1-ylindan-1-yloxy)benzenesulfonamide] | 1000 to 10000 nM | 
12 | CCCc1ccc(NC(C)=O)cc1O[C@H]1c2ccccc2CC[C@@H]1N1CCC[C@H](N)C1 (racemic) [Example 683, N-{3-[rac-trans-(1,2)-2-((S)-3-aminopiperidin-1-yl)-1,2,3,4-tetrahydronaphthalen-1-yloxy]-4-propylphenyl}acetamide] | 1000 to 10000 nM | 
13 | CC(=O)Nc1cccc(O[C@H]2c3cc(Cl)cc(Cl)c3C[C@@H]2N2C[C@H]3CC[C@@H](C2)N3)c1 [Example 664, N-[3-(trans-(1S,2S)-4,6-dichloro-2-3,8-diazabicyclo[3.2.1]oct-3-ylindan-1-yloxy)phenyl]acetamide] |  | IC50 (Activity range (inhibitory effect on NHE3)): < 1000 nM
14 | N[C@@H]1CCCN([C@H]2CCc3ccccc3[C@@H]2Oc2cccc(Cl)c2)C1 (racemic) [Example 55, (R)-1-[rac-trans-(1,2)-1-(3-chlorophenoxy)-1,2,3,4-tetrahydronaphthalen-2-yl]piperidin-3-ylamine] |  | inhibition at 10 µM [1]: 20 to 50%
15 | CS(=O)(=O)c1ccc(N[C@H]2c3cc(Cl)cc(Cl)c3C[C@@H]2N2CC[C@@H](O)C2)cc1 [Example 26, (R)-1-[(1S,2S)-4,6-dichloro-1-(4-methanesulfonylphenylamino)indan-2-yl]pyrrolidin-3-ol] | 1000 to 10000 nM | 
16 | CS(=O)(=O)c1ccc(O[C@@H]2c3ccccc3C[C@@H]2n2ccnc2)cc1 (racemic) [Example 261, 1-[rac-cis-(1,2)-1-(4-methanesulfonylphenoxy)indan-2-yl]-1H-imidazole] |  | inhibition at 10 µM [1]: 20 to 50%
17 | CN1CCN([C@H]2Cc3c(Cl)cc(Cl)cc3[C@@H]2Oc2ccc(-n3ccnc3)cc2)CC1 [Example 297, 1-[trans-(1S,2S)-4,6-dichloro-1-(4-imidazol-1-ylphenoxy)indan-2-yl]-4-methylpiperazine] |  | inhibition at 10 µM [1]: 20 to 50%
18 | CN1CC(=O)N(c2ccc(O[C@H]3c4cc(Cl)cc(Cl)c4C[C@@H]3N3CC[C@@H](O)C3)c(Cl)c2)C1=O [Example 422, 3-{3-chloro-4-[(1S,2S)-4,6-dichloro-2-((R)-3-hydroxypyrrolidin-1-yl)indan-1-yloxy]phenyl}-1-methylimidazolidine-2,4-dione] | < 1000 nM | 
19 | Cc1c(O[C@H]2c3cc(Cl)cc(Cl)c3C[C@@H]2N2CC[C@@H](O)C2)cccc1-n1ccn(C)c1=O [Example 312, 1-{3-[(1S,2S)-4,6-dichloro-2-((R)-3-hydroxypyrrolidin-1-yl)indan-1-yloxy]-2-methylphenyl}-3-methyl-1,3-dihydroimidazol-2-one] |  | inhibition at 10 µM [1]: 20 to 50%
20 | N[C@H]1CCCN([C@@H]2Cc3ccccc3[C@H]2Oc2ccc(N3CCNCC3)cc2)C1 (racemic) [Example 185, (S)-1-[rac-trans-(1,2)-1-(4-piperazin-1-ylphenoxy)indan-2-yl]piperidin-3-ylamine] | 1000 to 10000 nM | 
21 | CS(=O)(=O)c1ccc(O[C@H]2c3cc(Cl)cc(Cl)c3C[C@@H]2N2CC[C@@H](F)C2)cc1 [Example 100, (R)-1-[trans-(1S,2S)-4,6-dichloro-1-(4-methanesulfonylphenoxy)indan-2-yl]-3-fluoropyrrolidine] | < 1000 nM | 
22 | CN1CCCN([C@H]2Cc3c(Cl)cc(Cl)cc3[C@@H]2Oc2ccc(C#N)cc2F)CC1 [Example 556, 4-[trans-(1S,2S)-4,6-dichloro-2-(4-methyl-[1,4]diazepan-1-yl)indan-1-yloxy]-3-fluorobenzonitrile] | < 1000 nM | 
23 | CCOC(=O)c1ncoc1-c1ccc(O[C@H]2c3ccccc3CC[C@@H]2N2CCC[C@H](N)C2)cc1 (racemic) [Example 584, 5-{4-[rac-trans-(1,2)-2-((S)-3-aminopiperidin-1-yl)-1,2,3,4-tetrahydronaphthalen-1-yloxy]phenyl}oxazole-4-carboxylic acid ethyl ester] | 1000 to 10000 nM | 
24 | Cc1nnc(C)n1-c1ccc(O[C@H]2c3ccccc3C(C)(C)[C@@H]2N2CCCC2)cc1 (racemic) [Example 497, 4-[4-(rac-trans-(1,2)-3,3-dimethyl-2-pyrrolidin-1-ylindan-1-yloxy)phenyl]-3,5-dimethyl-4H-[1,2,4]triazole] |  | inhibition at 10 µM [1]: 20 to 50%
25 | Cc1nnnn1-c1ccc(O[C@H]2c3cc(Cl)cc(Cl)c3C[C@@H]2N2CC[C@@H](O)C2)cc1 [Example 112, (R)-1-{(1S,2S)-4,6-dichloro-1-[4-(5-methyltetrazol-1-yl)phenoxy]indan-2-yl}pyrrolidin-3-ol] | 1000 to 10000 nM | 
26 | Cc1nnc(C)n1-c1ccc(O[C@H]2c3cc(Cl)cc(Cl)c3C[C@@H]2N2CCS(=O)(=O)CC2)c(F)c1 [Example 565, 4-{trans-(1S,2S)-4,6-dichloro-1-[4-(3,5-dimethyl-[1,2,4]triazol-4-yl)-2-fluorophenoxy]indan-2-yl}thiomorpholine 1,1-dioxide] | < 1000 nM | 
27 | CS(=O)(=O)c1ccc(O[C@H]2c3cc(Cl)cc(Cl)c3C[C@@H]2N2CCCNCC2)c(Cl)c1 [Example 295, 1-[trans-(1S,2S)-4,6-dichloro-1-(2-chloro-4-methanesulfonylphenoxy)indan-2-yl]-[1,4]diazepane] | < 1000 nM | 
28 | Cc1cn(-c2ccc(O[C@H]3c4cc(Cl)cc(F)c4C[C@@H]3N3CC[C@@H](O)C3)c(F)c2)c(C)n1 [Example 738, (R)-1-{trans-(1S,2S)-6-Chloro-1-[4-(2,4-dimethyl-imidazol-1-yl)-2-fluoro-phenoxy]-4-fluoro-indan-2-yl}-pyrrolidin-3-ol] | < 1000 nM | 
